Target: HDAC 1 (Homo sapiens, UniProt Q13547)
Assay: HDAC 1 inhibition assay with about 3-hour enzyme/compound preincubation (fluorophore/quencher peptide substrate)
Type: biochemical
Details: 3-hour preincubation of enzyme and compound at room temperature; read-out: HDAC 1 inhibitory activity (IC50 [μM]) (3-hour preincubation)
Protocol: HDAC inhibitory activity of the compound of Example 1 was measured by two types of assays in which HDAC 1 and 6 were used as a target molecule. The first assay was carried out without preincubation after addition of the enzyme. The test compound was suspended in and titrated in DMSO. It was then spotted into a 384-well test plate. The enzyme, HDAC 1 or 6, was diluted in assay buffer containing 25 mM Tris-HCl (pH 8.0), 137 mM NaCl, 2.7 mM KCl, and 0.01% Tween-20 and added to the pre-spotted compound. The peptide substrate containing a fluorophore/quencher pair was diluted in the same assay buffer and added to the compound/enzyme mix initiating the reaction. The reaction incubated at room temperature for about 45 minutes. A concentrated developer solution was diluted in the assay buffer, and added to the reaction. The reaction was incubated at room temperature for about 15 minutes and relative fluorescence was read on an instrument reader.
The second assay is similar to the first assay described above, except that preincubation is carried out for about 3 hours after the enzyme is introduced. The test compound was suspended in, and titrated in DMSO. It was then spotted into a 384-well test plate. The enzyme, HDAC 1 or 6, was diluted in the same assay buffer as used in the previous assay and added to the pre-spotted compound. The enzyme/compound mix was incubated at room temperature for about 3 hours. The peptide substrate containing a fluorophore/quencher pair was diluted in the assay buffer and added to the compound/enzyme mix initiating the reaction. The reaction incubated at room temperature for 45 minutes. A concentrated developer solution was diluted in the assay buffer, and added to the reaction. The reaction was incubated at room temperature for about 15 minutes and relative fluorescence was read on an instrument reader.

Chain of HDAC 1 (Q13547 whole entry, species assumed): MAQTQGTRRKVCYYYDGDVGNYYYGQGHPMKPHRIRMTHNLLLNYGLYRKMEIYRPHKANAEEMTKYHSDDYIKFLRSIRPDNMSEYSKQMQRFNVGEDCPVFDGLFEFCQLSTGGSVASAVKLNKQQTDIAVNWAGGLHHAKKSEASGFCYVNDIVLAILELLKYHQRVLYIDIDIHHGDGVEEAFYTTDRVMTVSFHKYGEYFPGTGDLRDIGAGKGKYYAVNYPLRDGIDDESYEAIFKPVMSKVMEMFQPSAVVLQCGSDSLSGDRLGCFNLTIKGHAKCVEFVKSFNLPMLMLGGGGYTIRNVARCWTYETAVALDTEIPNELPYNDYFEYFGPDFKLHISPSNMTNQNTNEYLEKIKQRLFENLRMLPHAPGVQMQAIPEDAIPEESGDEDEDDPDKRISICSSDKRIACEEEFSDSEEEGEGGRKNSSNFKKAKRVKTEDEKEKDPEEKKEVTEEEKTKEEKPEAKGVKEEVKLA

Q: For `Nc1ccccc1NC(=O)c1ccc(C2(c3nc(-c4ccc(Cl)nc4)cs3)CCOCC2)cc1` [Example 18, N-(2-aminophenyl)-4-(4-(4-(6-chloropyridin-3-yl)thiazol-2-yl)tetrahydropyran-4-yl)benzamide], which IC50 is on record?
A: Its IC50 is 0.0139 µM.

Q: `Cc1ccc(-c2ccc(N)c(NC(=O)c3ccc(C4(c5nccs5)CC4)cc3)c2)s1` [Example 52, N-(2-amino-5-(5-methylthiophen-2-yl)phenyl)-4-(1-(thiazol-2-yl)cyclopropyl)benzamide] was tested. Which IC50 did it give?
A: The IC50 was 0.00792 µM.

Q: How did the IC50 turn out when `CN1CCc2nc(C3(c4ccc(C(=O)Nc5cc(F)ccc5N)cc4)CCOCC3)sc2C1` [Example 30, N-(2-amino-5-fluorophenyl)-4-(4-(5-methyl-4,5,6,7-tetrahydrothiazolo[5,4-c]pyridin-2-yl)tetrahydropyran-4-yl)benzamide] was run?
A: The IC50 was 0.067 µM.

Q: `Nc1ccc(-c2cccs2)cc1NC(=O)c1ccc(C2(c3nc(CN4CCCC4)cs3)CCOCC2)cc1` [Example 31, N-(2-amino-5-(thiophen-2-yl)phenyl)-4-(4-(4-(pyrrolidin-1-ylmethyl)thiazol-2-yl)tetrahydropyran-4-yl)benzamide] was tested. Which IC50 did it give?
A: The IC50 was 0.001 µM.

Q: With `Nc1ccccc1NC(=O)c1ccc(C2(c3nc(-c4ccc(N5CCNCC5)nc4)cs3)CCOCC2)cc1` [Example 35, N-(2-aminophenyl)-4-(4-(4-(6-(piperazin-1-yl)pyridin-3-yl)thiazol-2-yl)tetrahydropyran-4-yl)benzamide] as the compound, how does the IC50 read?
A: Its IC50 is 0.0033 µM.

Q: Which IC50 does the source give for `Nc1ccc(-c2cccs2)cc1NC(=O)c1ccc(C2(c3nnn[nH]3)CCOCC2)cc1` [Example 38, 4-(4-(1H-tetrazol-5-yl)tetrahydropyran-4-yl)-N-(2-amino-5-(thiophen-2-yl)phenyl)benzamide] here?
A: The IC50 was 0.00311 µM.

Q: With `Nc1ccc(-c2ccc(F)cc2)cc1NC(=O)c1ccc(C2(c3nnn[nH]3)CCOCC2)cc1` [Example 39, 4-(4-(1H-tetrazol-5-yl)tetrahydropyran-4-yl)-N-(4-amino-4′-fluorobiphenyl-3-yl)benzamide] as the compound, how does the IC50 read?
A: Its IC50 is 0.00333 µM.

Q: Which IC50 does the source give for `CN1CCN(c2ccc(-c3csc(C4(c5ccc(C(=O)Nc6ccccc6N)cc5)CCOCC4)n3)cn2)CC1` [Example 25, N-(2-aminophenyl)-4-(4-(4-(6-(4-methylpiperazin-1-yl)pyridin-3-yl)thiazol-2-yl)tetrahydropyran-4-yl)benzamide] here?
A: The IC50 was 0.006 µM.

Q: How did the IC50 turn out when `Nc1ccccc1NC(=O)c1ccc(C2(c3nc(-c4ccc(N5CCCC5)nc4)cs3)CCOCC2)cc1` [Example 20, N-(2-aminophenyl)-4-(4-(4-(6-(pyrrolidin-1-yl)pyridin-3-yl)thiazol-2-yl)tetrahydropyran-4-yl)benzamide] was run?
A: The IC50 was 0.019 µM.

Q: `COCCOc1ccc(-c2csc(C3(c4ccc(C(=O)Nc5ccccc5N)cc4)CCOCC3)n2)cn1` [Example 24, N-(2-aminophenyl)-4-(4-(4-(6-(2-methoxyethoxy)pyridin-3-yl)thiazol-2-yl)tetrahydropyran-4-yl)benzamide] was tested. Which IC50 did it give?
A: Its IC50 is 0.013 µM.

Q: For `Nc1ccccc1NC(=O)c1ccc(C2(c3nc(-c4cccnc4)cs3)CC2)cc1` [Example 5, N-(2-Amino-phenyl)-4-[1-(4-pyridin-3-yl-thiazol-2-yl)-cyclopropyl]-benzamide], which IC50 is on record?
A: The IC50 was 0.012 µM.

Q: With `CC(=O)N1CCc2nc(C3(c4ccc(C(=O)Nc5ccccc5N)cc4)CCOCC3)sc2C1` [Example 27, 4-(4-(5-acetyl-4,5,6,7-tetrahydrothiazolo[5,4-c]pyridin-2-yl)tetrahydropyran-4-yl)-N-(2-aminophenyl)benzamide] as the compound, how does the IC50 read?
A: The IC50 was 0.019 µM.

Q: For `Cc1nc(C2(c3ccc(C(=O)Nc4cc(-c5ccc(F)cc5)ccc4N)cc3)CCOCC2)sc1C(C)O` (centres unmarked) [Example 61, N-(4-amino-4′-fluorobiphenyl-3-yl)-4-(4-(5-(1-hydroxyethyl)-4-methylthiazol-2-yl)tetrahydropyran-4-yl)benzamide], which IC50 is on record?
A: Its IC50 is 0.00209 µM.

Q: Which IC50 does the source give for `Nc1ccc(-c2cccs2)cc1NC(=O)c1ccc(C2(c3nc(-c4cccnc4)cs3)CCOCC2)cc1` [Example 22, N-(2-amino-5-(thiophen-2-yl)phenyl)-4-(4-(4-(pyridin-3-yl)thiazol-2-yl)tetrahydropyran-4-yl)benzamide] here?
A: The IC50 was 0.014 µM.

Q: With `Cc1nc2ccccn2c1-c1csc(C2(c3ccc(C(=O)Nc4ccccc4N)cc3)CCCC2)n1` [Example 7] as the compound, how does the IC50 read?
A: Its IC50 is 0.008 µM.

Q: For `CN1CCc2nc(C3(c4ccc(C(=O)Nc5ccccc5N)cc4)CCOCC3)sc2C1` [Example 29, N-(2-aminophenyl)-4-(4-(5-methyl-4,5,6,7-tetrahydrothiazolo[5,4-c]pyridin-2-yl)tetrahydropyran-4-yl)benzamide], which IC50 is on record?
A: Its IC50 is 0.032 µM.

Q: `CN1CCc2nc(C3(c4ccc(C(=O)Nc5cc(-c6cccs6)ccc5N)cc4)CCOCC3)sc2C1` [Example 21, N-(2-amino-5-(thiophen-2-yl)phenyl)-4-(4-(5-methyl-4,5,6,7-tetrahydrothiazolo[5,4-c]pyridin-2-yl)tetrahydropyran-4-yl)benzamide] was tested. Which IC50 did it give?
A: Its IC50 is 0.006 µM.

Q: `Nc1ccc(-c2ccc(F)cc2)cc1NC(=O)c1ccc(C2(c3nccs3)CCOCC2)cc1` [Example 36, N-(4-amino-4′-fluorobiphenyl-3-yl)-4-(4-(thiazol-2-yl)tetrahydropyran-4-yl)benzamide] was tested. Which IC50 did it give?
A: The IC50 was 0.0029 µM.

Q: How did the IC50 turn out when `Nc1ccccc1NC(=O)c1ccc(C2(c3nc4c(s3)COCC4)CCOCC2)cc1` [Example 26, N-(2-aminophenyl)-4-(4-(6,7-dihydropyrano[4,3-d]thiazol-2-yl)tetrahydropyran-4-yl)benzamide] was run?
A: Its IC50 is 0.017 µM.

Q: For `CC(=O)c1sc(C2(c3ccc(C(=O)Nc4ccccc4N)cc3)CC2)nc1C` [Example 3, 4-[1-(5-Acetyl-4-methyl-thiazol-2-yl)-cyclopropyl]-N-(2-amino-phenyl)-benzamide], which IC50 is on record?
A: The IC50 was 0.065 µM.

Q: For `CC(=O)N1CCc2nc(C3(c4ccc(C(=O)Nc5cc(-c6cccs6)ccc5N)cc4)CCOCC3)sc2C1` [Example 28, 4-(4-(5-acetyl-4,5,6,7-tetrahydrothiazolo[5,4-c]pyridin-2-yl)tetrahydropyran-4-yl)-N-(2-amino-5-(thiophen-2-yl)phenyl)benzamide], which IC50 is on record?
A: The IC50 was 0.0026 µM.

Q: How did the IC50 turn out when `Nc1ccc(F)cc1NC(=O)c1ccc(C2(c3nc(-c4cnccn4)cs3)CCOCC2)cc1` [Example 57, N-(2-amino-5-fluorophenyl)-4-(4-(4-(pyrazin-2-yl)thiazol-2-yl)tetrahydropyran-4-yl)benzamide] was run?
A: Its IC50 is 0.00774 µM.

Q: For `Nc1ccc(-c2cccs2)cc1NC(=O)c1ccc(C2(c3nccs3)CC2)cc1` [Example 50, N-(2-amino-5-(thiophen-2-yl)phenyl)-4-(1-(thiazol-2-yl)cyclopropyl)benzamide], which IC50 is on record?
A: Its IC50 is 0.00262 µM.

Q: For `Nc1ccc(F)cc1NC(=O)c1ccc(C2(c3nc(-c4cccnc4)cs3)CC2)cc1` [Example 19, N-(2-Amino-5-fluoro-phenyl)-4-[1-(4-pyridin-3-yl-thiazol-2-yl)-cyclopropyl]-benzamide], which IC50 is on record?
A: Its IC50 is 0.0518 µM.

Q: How did the IC50 turn out when `Nc1ccc(-c2ccc(F)cc2)cc1NC(=O)c1ccc(C2(c3nc(-c4cnccn4)cs3)CCOCC2)cc1` [Example 54, N-(4-amino-4′-fluorobiphenyl-3-yl)-4-(4-(4-(pyrazin-2-yl)thiazol-2-yl)tetrahydropyran-4-yl)benzamide] was run?
A: The IC50 was 0.00625 µM.

Q: With `Cc1cnc(C2(c3ccc(C(=O)Nc4cc(-c5ccc(F)cc5)ccc4N)cc3)CCOCC2)s1` [Example 63, N-(4-amino-4′-fluorobiphenyl-3-yl)-4-(4-(5-methylthiazol-2-yl)tetrahydropyran-4-yl)benzamide] as the compound, how does the IC50 read?
A: The IC50 was 0.00428 µM.

From patent US8198299B2, “Cycloalkylidene and heterocycloalkylidene inhibitor compounds” (Gilead Sciences, Inc., priority 2008, dated 2012)
